Assay results reported in PubChem BioAssay (NCI).
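Five concentrations, 48 hours, 96-well plates. At the GI50, growth is halved. TGI is the concentration that stops growth completely.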

Experiments:
Assay in all cases: NCI tumour cell line growth inhibition, 48 h
MALME-3M melanoma = tested on: MALME-3M melanoma
HCT-15 colon = tested on: HCT-15 colon
OVCAR-8 ovarian = tested on: OVCAR-8 ovarian
SK-MEL-5 melanoma = tested on: SK-MEL-5 melanoma
K-562 leukemia = tested on: K-562 leukemia
786-0 renal = tested on: 786-0 renal
M14 melanoma = tested on: M14 melanoma
HT29 colon = tested on: HT29 colon
COLO 205 colon = tested on: COLO 205 colon
SNB-75 CNS = tested on: SNB-75 CNS

SMILES	GI50 (MALME-3M melanoma) [µM]	TGI (MALME-3M melanoma) [µM]	GI50 (HCT-15 colon) [µM]	TGI (HCT-15 colon) [µM]	GI50 (OVCAR-8 ovarian) [µM]	TGI (OVCAR-8 ovarian) [µM]	GI50 (SK-MEL-5 melanoma) [µM]	TGI (SK-MEL-5 melanoma) [µM]	GI50 (K-562 leukemia) [µM]	TGI (K-562 leukemia) [µM]	GI50 (786-0 renal) [µM]	TGI (786-0 renal) [µM]	GI50 (M14 melanoma) [µM]	TGI (M14 melanoma) [µM]	GI50 (HT29 colon) [µM]	TGI (HT29 colon) [µM]	GI50 (COLO 205 colon) [µM]	TGI (COLO 205 colon) [µM]	GI50 (SNB-75 CNS) [µM]	TGI (SNB-75 CNS) [µM]
O=C1OCC2=C1C(c1cccc(C(F)(F)F)c1)c1cc3c(cc1N2CCO)OCCO3 (stereo unspecified)	2.86	> 33.3	0.967	> 33.3	1.29	> 33.3	0.997	6.97	0.881	> 33.3	1.81	> 33.3	0.967	> 33.3	1.09	> 33.3	0.868	2.48		
COc1cc(OC)c2c(=O)cc(-c3ccccc3OCc3ccccc3)oc2c1OC			16.2	> 100	> 100	> 100	1.84	4.33	> 100	> 100	5.49	56.4	7.22	23.1	28.9	> 100			61.8	> 100
COc1cc(Cc2c(C)cc(OC)c3[nH]c4ccccc4c23)cc2c1[nH]c1ccccc12	4.44	12.4	6.89	> 25		10.9	3.94	7.93	7.31	> 25	5.38	14.2	5.12	11.8	7.84	> 25	12	> 25		
CCCCNS(=O)(=O)c1ccc(-c2ccc3c(c2)-c2ccc(S(=O)(=O)NCCCC)cc2S3(=O)=O)cc1		49.2		> 100		24.9		28.6		> 100		27.9		53.7		> 100		> 100		
CN(C)CCN1C(=O)c2cccc3c(/C=C/CN4C(=O)c5cccc6cccc(c56)C4=O)ccc(c23)C1=O	4.06	30.5	> 100	> 100	4.21	> 100	> 100	> 100			4.5	19.5	> 100	> 100	> 100	> 100	> 100	> 100		
CC(C)=Cc1cc(CCC/C(C)=C/Cc2c(O)cc(C)c(C(=O)O)c2O)co1				> 100		> 100		> 100		> 100		> 100		> 100		> 100		> 100		> 100
O=C1CC(c2cccc(Cl)c2)Oc2ccccc21 (stereo unspecified)				49		53.8		37.6		6.4		39.5		36		33.3		69.3		66.6
CCOC(=O)c1c(-c2ccccc2)[n+](=O)c2cc(F)c(F)cc2n1[O-]			0.215	0.441	2.06	4.43	1.53	3.52	0.702	> 100	2.01	3.64	1.11	2.34	1.51	3.27			1.75	3.64
CC1CCCC(C#N)(NOC2=NCCN2)C1 (stereo unspecified)			44.6	> 100	41	> 100	14.9	34.2	17.4	61.5	> 100	> 100	84.1	> 100	92.2	> 100	61.3	> 100	40.3	> 100
CC(C)C1(NC(=O)C2CC3c4cccc5[nH]cc(c45)CC3N(C)C2)OC2(O)C3CCCN3C(=O)C(Cc3ccccc3)N2C1=O (stereo unspecified)				> 100		> 100		> 100				> 100		> 100		> 100		> 100		86.8
O=c1[nH]c2ccccc2c(O)c1/C=N/C(=S)NC1CCCCC1				> 100		> 100		> 100		> 100		> 100		> 100		> 100		> 100		> 100
COc1cc(C)cc(C(=O)/C=C/c2ccccc2)c1O				40.9		40		40.4		> 100		37.3		34.8		34.7		38.1		72.1
C1CSC[C@H]2COC[C@@H](CSCCS1)S2				> 100		> 100		> 100		> 100		> 100		> 100		> 100		> 100		> 100
CC(C)[P+](c1ccccc1)(c1ccccc1)c1ccccc1			> 100	> 100	4.42	> 100	2.22	7.9	2.4	> 100	32.5	> 100	11.2	> 100	5.8	> 100	3.87	16	4.81	66
